Assay results reported in publication PMC12686243, “Synthesis and preclinical evaluation of FAP-targeting radiotracers for PET and optical imaging” (EJNMMI Radiopharmacy and Chemistry, 2025).

Experiments:
[1] = tested on: WT-HT1080 cells; experiment: fluorescence microscopy of cellular binding and uptake; format: cell-based, human; details: 1 µM, 37 °C, up to 4 h
Method: WT/hFAP-HT1080 cells were seeded in an 18-chamber slide with 10,000 cells/well and cultured overnight. The medium was discarded and replaced by medium containing 1 µM of NODAGA-FAP647. The cells were then further incubated at 37 °C and 5% CO2. The binding of the ligand was stopped at the indicated time points by discarding the media and washing the cells twice with ice-cold PBS. The cells were then quickly fixed with 4% PFA/2.5% saccharose in PBS at 20 °C for 20 min. Following the fixation, cells were incubated with a 1:200 dilution of WGA-CF488A (Biotium #29022–1) in PBS to stain the cell membranes. Finally, the cell nuclei were stained with Hoechst33258 (Sigma #94403) diluted 5 µg/ml in PBS for 30 min at 20 °C. Cells were visualized with the Fluoview 1000 confocal laser scanning microscope (Olympus) using a 100 × oil immersion objective. Three representative images were captured for each well.

[2] = tested on: hFAP-HT1080 and WT-HT1080 xenografts; experiment: in vivo fluorescence imaging of xenograft-bearing mice; parameters: species or system nude mice
Description: Female athymic NMRI-nude mice (Rj:NMRI-Foxn1nu, Janvier Labs, France or Charles River, Germany) between 8 and 20 weeks of age were used. Subsequently, the prepared cells (1.0–2.0 × 10^6 hFAP/WT-HT1080 per animal) were subcutaneously injected into the right and left thigh, respectively. Xenograft tissue for real-time binding experiments was derived from animals injected with both target-positive and negative cells, however only showing growth of one tumor entity. When approaching endpoints, mice were anesthetized and euthanized. The tumor was quickly removed, frozen in − 45 °C 2-methylbutane and stored in sealed tubes at − 80 °C.
Optical imaging was performed using a multimodal IVIS-CT (Perkin Elmer, USA). Compounds were injected [0.09 mg/kg (n = 1)/0.33 mg/kg (n = 3) for NODAGA-FAP647; 0.17 mg/kg (n = 3) for NODAGA-FAP800, diluted in 150 µL of sterile 0.9% NaCl solution] into the lateral tail vein, either directly or via catheter. Fluorescence imaging started ~ 2 min post injection for 2–3 h, with 1 min, 3–5 min and 10 min intervals, along with a white-light image. Additional scans were performed after 24 h and, if applicable, later. The fluorescence of the respective fluorophore was captured (NODAGA-FAP647: λEx/Em = 640/680 nm, NODAGA-FAP800: λEx/Em = 745/800 nm). Emitted fluorescence intensity was analyzed (Perkin Elmer, Living Image 4.7.4) in raw data images.

[3] = target: T1, human recombinant dipeptidylpeptidase IV (Homo sapiens, UniProt P27487); experiment: fluorometric enzyme inhibition assay for DPPIV; format: biochemical
T1 construct: purchased Cayman Chemical
Method: The affinity towards DPPIV was determined using a commercially available inhibitor screening assay kit (Cayman Chemical, USA). The assay was performed according to the manufacturer’s instructions, and the data was analyzed as described above.

[4] = target: T2, hFAPα, recombinant protein (Homo sapiens, UniProt Q12884); experiment: fluorometric enzyme inhibition assay for FAP; format: biochemical; details: Morrison equation for tight binding inhibitors; substrate Ala-Pro-AMC; mean ± SD
T2 construct: purchased
T2 sequence (Q12884 1-760): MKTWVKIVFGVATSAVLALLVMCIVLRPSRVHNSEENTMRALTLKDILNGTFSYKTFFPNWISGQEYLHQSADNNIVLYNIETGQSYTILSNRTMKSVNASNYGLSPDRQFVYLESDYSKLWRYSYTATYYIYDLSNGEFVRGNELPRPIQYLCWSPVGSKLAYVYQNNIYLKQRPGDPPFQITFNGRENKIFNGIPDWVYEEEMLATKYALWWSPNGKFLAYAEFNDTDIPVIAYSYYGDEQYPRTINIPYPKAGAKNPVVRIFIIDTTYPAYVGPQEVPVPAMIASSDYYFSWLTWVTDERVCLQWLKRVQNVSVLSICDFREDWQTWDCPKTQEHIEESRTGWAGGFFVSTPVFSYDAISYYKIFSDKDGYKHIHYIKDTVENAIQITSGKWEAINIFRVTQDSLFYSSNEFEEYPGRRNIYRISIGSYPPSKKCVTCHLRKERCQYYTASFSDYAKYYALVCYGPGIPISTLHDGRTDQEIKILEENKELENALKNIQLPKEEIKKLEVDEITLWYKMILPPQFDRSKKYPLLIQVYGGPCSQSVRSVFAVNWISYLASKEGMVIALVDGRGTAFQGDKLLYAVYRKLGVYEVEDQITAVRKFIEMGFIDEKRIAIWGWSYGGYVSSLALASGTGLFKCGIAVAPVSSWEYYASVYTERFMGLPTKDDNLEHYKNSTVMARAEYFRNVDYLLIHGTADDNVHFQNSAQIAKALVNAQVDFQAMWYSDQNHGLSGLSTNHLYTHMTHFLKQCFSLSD
Method: Affinity towards FAP was tested using a commercially available fluorometric assay. At the day of the experiment, all tested compounds were diluted in assay buffer (DPP assay buffer, BPS Bioscience, San Diego, CA, USA,) in a 1:1 dilution series, resulting in eleven concentrations, ranging from 2000 nM to 1.950 nM, equal to 200 nM to 0.195 nM per well. The substrate Ala-Pro-AMC (BPS Bioscience, concentration per well: 5 μM, Km = 244 μM (Edosada et al. [2006])) was pipetted along with the inhibitor into a 96-well plate. Subsequently, the enzyme (hFAPα, recombinant protein) was dissolved in assay buffer and added to the wells. The final concentration of DMSO per well was 0.2%. The 96-well plate was immediately loaded into a multimode plate reader (Biotek Cytation 5, Agilent, Santa Clara, CA, USA). The fluorescence intensity for each well was measured over a time course of 30 min with measurement intervals of 15 s, an excitation wavelength of 360 ± 20 nm and an emission wavelength of 450 ± 20 nm. Data (relative fluorescence units, RFU) over the total measurement time was analyzed by linear regression. The slope of the resulting graphs was analyzed over the inhibitor concentration. The enzyme inhibition constant Ki was calculated using the Morrison equation for tight binding inhibitors (Williams and Morrison [1979]). […]

T1 sequence (P27487 whole entry): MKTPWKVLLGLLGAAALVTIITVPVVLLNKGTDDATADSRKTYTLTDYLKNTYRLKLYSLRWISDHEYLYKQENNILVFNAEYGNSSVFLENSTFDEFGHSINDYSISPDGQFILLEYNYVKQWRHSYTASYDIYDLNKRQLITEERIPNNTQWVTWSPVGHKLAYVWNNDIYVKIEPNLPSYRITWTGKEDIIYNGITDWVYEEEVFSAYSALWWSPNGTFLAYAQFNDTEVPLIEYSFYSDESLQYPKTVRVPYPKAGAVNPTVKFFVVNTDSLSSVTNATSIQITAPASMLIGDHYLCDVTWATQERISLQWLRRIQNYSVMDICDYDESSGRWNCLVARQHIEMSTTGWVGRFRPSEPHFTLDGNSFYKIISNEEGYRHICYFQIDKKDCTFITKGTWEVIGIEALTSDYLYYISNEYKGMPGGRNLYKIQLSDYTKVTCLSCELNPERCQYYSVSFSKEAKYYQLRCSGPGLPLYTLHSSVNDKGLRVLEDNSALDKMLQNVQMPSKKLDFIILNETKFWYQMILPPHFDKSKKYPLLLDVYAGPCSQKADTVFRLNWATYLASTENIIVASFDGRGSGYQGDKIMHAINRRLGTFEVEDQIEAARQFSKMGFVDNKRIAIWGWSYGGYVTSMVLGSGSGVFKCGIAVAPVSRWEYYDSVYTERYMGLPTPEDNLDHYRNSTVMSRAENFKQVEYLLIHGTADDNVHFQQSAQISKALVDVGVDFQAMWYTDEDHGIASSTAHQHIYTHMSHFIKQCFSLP

- ratio hFAP-HT1080/muscle fluorescence ([2]; 120 min post injection): 3.5
- ratio hFAP/WT-HT1080 tumor fluorescence ([2]; 120 min post injection): 2.5
- fluorescence in hFAP-HT1080 tumor higher than in WT-HT1080 tumor or muscle ([2]; 24 h post injection): roughly 60%
- reduction of fluorescence signal in hFAP-HT1080 tumor ([2]; after 24 h post injection): 59%
- WT-HT1080 to muscle ratio ([2]; over the imaging period): close to one
- time to plateau of fluorescence in hFAP-HT1080 tumor ([2]; post injection): ~ 10 min
- IC50 [3]: > 10000 nM
- Ki [4]: 0.237 ± 0.064 nM
Structure (SMILES): CN(CCCN1CCN(C(=O)[C@H](CCCCNC(=O)CC[C@H](C(=O)O)N2CCN(CC(=O)O)CCN(CC(=O)O)CC2)NC(=O)CCOCCOCCOCCOCCNC(=O)CCCCCC2(C)C(/C=C/C=C/C=C3/N(CCCS(=O)(=O)O)c4ccc(S(=O)(=O)O)cc4C3(C)C)=[N+](CCCS(=O)(=O)O)c3ccc(S(=O)(=O)[O-])cc32)CC1)c1ccc2nccc(C(=O)NCC(=O)N3CC(F)(F)C[C@H]3C#N)c2c1 (stereo partly drawn) [NODAGA-FAP647]
- binding or uptake in WT-HT1080 cells [1]: did not show any binding or uptake
